Organism: Rattus norvegicus
Assay: DrugMatrix - Regimen: Daily Repeat
Assay type: toxicity, organism-based, Sprague-Dawley
Set-up: regimen Daily Repeat, gender Male, age 6-8 weeks
Details: in vivo, po, route oral GAVAGE, vehicle .5 % CMC; for ABSOLUTE BASOPHIL / ABSOLUTE EOSINOPHIL / ABSOLUTE LYMPHOCYTE / ABSOLUTE MONOCYTE / ABSOLUTE SEGMENTED NEUTROPHIL / BASOPHIL / EOSINOPHIL / ERYTHROCYTE COUNT / HEMATOCRIT / HEMOGLOBIN / LEUKOCYTE COUNT / LYMPHOCYTE / MEAN CORPUSCULAR HEMOGLOBIN / MEAN CORPUSCULAR HEMOGLOBIN CONCENTRATION / MEAN CORPUSCULAR VOLUME / MONOCYTE / NEUTROPHIL / NUCLEATED RED BLOOD CELLS / PLATELET COUNT: tissue Blood; for ALANINE AMINOTRANSFERASE / ALBUMIN / ALKALINE PHOSPHATASE / ASPARTATE AMINOTRANSFERASE / BLOOD UREA NITROGEN / CARBON DIOXIDE / CHLORIDE / CHOLESTEROL / CREATINE PHOSPHOKINASE / CREATININE / GLUCOSE / LACTATE DEHYDROGENASE / LIPASE / PHOSPHORUS / POTASSIUM / SODIUM / TOTAL BILIRUBIN / TOTAL PROTEIN / URIC ACID: tissue Plasma
[1] = 0 mg/kg, 72 h, dose level Control, time 3 day
[2] = 0 mg/kg, 120 h, dose level Control, time 5 day
[3] = 100 mg/kg, 72 h, dose level Low, time 3 day

CCc1ccc(C(=O)C(C)CN2CCCCC2)cc1 (centres undefined) [EPERISONE]
ABSOLUTE BASOPHIL [1]: 0 CELLS/uL
ABSOLUTE EOSINOPHIL [1]: 284.5 CELLS/uL
ABSOLUTE LYMPHOCYTE [1]: 11670.5 CELLS/uL
ABSOLUTE MONOCYTE [1]: 420.83 CELLS/uL
ABSOLUTE SEGMENTED NEUTROPHIL [1]: 1024.17 CELLS/uL
BASOPHIL [1]: 0%
EOSINOPHIL [1]: 1.67%
ERYTHROCYTE COUNT [1]: 5.38 x10E6/uL
HEMATOCRIT [1]: 34.05%
HEMOGLOBIN [1]: 12.75 G/DL
LEUKOCYTE COUNT [1]: 13.4 x10E3/uL
LYMPHOCYTE [1]: 88.33%
MEAN CORPUSCULAR HEMOGLOBIN [1]: 23.73 pg
MEAN CORPUSCULAR HEMOGLOBIN CONCENTRATION [1]: 37.43 G/DL
MEAN CORPUSCULAR VOLUME [1]: 63.4 fL
MONOCYTE [1]: 2.83%
NEUTROPHIL [1]: 7.17%
NUCLEATED RED BLOOD CELLS [1]: 0 /100WBC
PLATELET COUNT [1]: 1184.67 x10E3/uL
ALANINE AMINOTRANSFERASE [1]: 45.33 u/L
ALBUMIN [1]: 4.3 G/DL
ALKALINE PHOSPHATASE [1]: 388.83 u/L
ASPARTATE AMINOTRANSFERASE [1]: 84.83 u/L
BLOOD UREA NITROGEN [1]: 15.5 mg/dL
CARBON DIOXIDE [1]: 27 mmol/L
CHLORIDE [1]: 101.8 MEQ/L
CHOLESTEROL [1]: 76.67 mg/dL
CREATINE PHOSPHOKINASE [1]: 301 u/L
CREATININE [1]: 0.21 mg/dL
GLUCOSE [1]: 168.83 mg/dL
LACTATE DEHYDROGENASE [1]: 294.83 u/L
LIPASE [1]: 9.8 u/L
PHOSPHORUS [1]: 13.25 mg/dL
POTASSIUM [1]: 6.41 MEQ/L
SODIUM [1]: 143.72 MEQ/L
TOTAL BILIRUBIN [1]: 0.22 mg/dL
TOTAL PROTEIN [1]: 5.98 G/DL
URIC ACID [1]: 1.5 mg/dL
ABSOLUTE BASOPHIL [2]: 0 CELLS/uL
ABSOLUTE EOSINOPHIL [2]: 190.67 CELLS/uL
ABSOLUTE LYMPHOCYTE [2]: 12549.5 CELLS/uL
ABSOLUTE MONOCYTE [2]: 276 CELLS/uL
ABSOLUTE SEGMENTED NEUTROPHIL [2]: 1067.17 CELLS/uL
BASOPHIL [2]: 0%
EOSINOPHIL [2]: 1.33%
ERYTHROCYTE COUNT [2]: 5.66 x10E6/uL
HEMATOCRIT [2]: 35.92%
HEMOGLOBIN [2]: 13.65 G/DL
LEUKOCYTE COUNT [2]: 14.08 x10E3/uL
LYMPHOCYTE [2]: 89%
MEAN CORPUSCULAR HEMOGLOBIN [2]: 24.12 pg
MEAN CORPUSCULAR HEMOGLOBIN CONCENTRATION [2]: 38.03 G/DL
MEAN CORPUSCULAR VOLUME [2]: 63.47 fL
MONOCYTE [2]: 2%
NEUTROPHIL [2]: 7.67%
NUCLEATED RED BLOOD CELLS [2]: 0.17 /100WBC
PLATELET COUNT [2]: 1251.67 x10E3/uL
ALANINE AMINOTRANSFERASE [2]: 43.33 u/L
ALBUMIN [2]: 4.22 G/DL
ALKALINE PHOSPHATASE [2]: 365.67 u/L
ASPARTATE AMINOTRANSFERASE [2]: 83.67 u/L
BLOOD UREA NITROGEN [2]: 18.17 mg/dL
CARBON DIOXIDE [2]: 28.67 mmol/L
CHLORIDE [2]: 103.5 MEQ/L
CHOLESTEROL [2]: 71.5 mg/dL
CREATINE PHOSPHOKINASE [2]: 284.5 u/L
CREATININE [2]: 0.21 mg/dL
GLUCOSE [2]: 161.67 mg/dL
LACTATE DEHYDROGENASE [2]: 259.67 u/L
LIPASE [2]: 9.5 u/L
PHOSPHORUS [2]: 12.45 mg/dL
POTASSIUM [2]: 6.49 MEQ/L
SODIUM [2]: 144.25 MEQ/L
TOTAL BILIRUBIN [2]: 0.2 mg/dL
TOTAL PROTEIN [2]: 6.1 G/DL
URIC ACID [2]: 1.73 mg/dL
ABSOLUTE BASOPHIL [3]: 0 CELLS/uL
ABSOLUTE EOSINOPHIL [3]: 0 CELLS/uL
ABSOLUTE LYMPHOCYTE [3]: 7799.67 CELLS/uL
ABSOLUTE MONOCYTE [3]: 242.67 CELLS/uL
ABSOLUTE SEGMENTED NEUTROPHIL [3]: 691 CELLS/uL
BASOPHIL [3]: 0%
EOSINOPHIL [3]: 0%
ERYTHROCYTE COUNT [3]: 5.44 x10E6/uL
HEMATOCRIT [3]: 34.63%
HEMOGLOBIN [3]: 12.8 G/DL
LEUKOCYTE COUNT [3]: 8.73 x10E3/uL
LYMPHOCYTE [3]: 89.33%
MEAN CORPUSCULAR HEMOGLOBIN [3]: 23.6 pg
MEAN CORPUSCULAR HEMOGLOBIN CONCENTRATION [3]: 36.97 G/DL
MEAN CORPUSCULAR VOLUME [3]: 63.73 fL
MONOCYTE [3]: 2.67%
NEUTROPHIL [3]: 8%
NUCLEATED RED BLOOD CELLS [3]: 0 /100WBC
PLATELET COUNT [3]: 1233.67 x10E3/uL
ALANINE AMINOTRANSFERASE [3]: 50 u/L
ALBUMIN [3]: 4.33 G/DL
ALKALINE PHOSPHATASE [3]: 470.67 u/L
ASPARTATE AMINOTRANSFERASE [3]: 82 u/L
BLOOD UREA NITROGEN [3]: 13.67 mg/dL
CARBON DIOXIDE [3]: 29.33 mmol/L
CHLORIDE [3]: 101.5 MEQ/L
CHOLESTEROL [3]: 90.33 mg/dL
CREATINE PHOSPHOKINASE [3]: 213.33 u/L
CREATININE [3]: 0.21 mg/dL
GLUCOSE [3]: 138.33 mg/dL
LACTATE DEHYDROGENASE [3]: 128.67 u/L
LIPASE [3]: 9 u/L
PHOSPHORUS [3]: 11.63 mg/dL
POTASSIUM [3]: 6.14 MEQ/L
SODIUM [3]: 146.7 MEQ/L
TOTAL BILIRUBIN [3]: 0.3 mg/dL
TOTAL PROTEIN [3]: 6.07 G/DL
URIC ACID [3]: 0.97 mg/dL

— ChEMBL document CHEMBL3885881, “DrugMatrix”
